# Measured values taken from US20080125424A1, “Derivatives of urea and related diamines, methods for their manufacture, and uses therefor” (priority 2006, published 2008).
# pEC50: −log10 of the molar value.
# Biological target: T1, human parathyroid cell Ca2+ receptor (hPCaR) (Homo sapiens, UniProt P41180)
# T1 construct: expressed in transfected cells
# T1 sequence (P41180 20-1078): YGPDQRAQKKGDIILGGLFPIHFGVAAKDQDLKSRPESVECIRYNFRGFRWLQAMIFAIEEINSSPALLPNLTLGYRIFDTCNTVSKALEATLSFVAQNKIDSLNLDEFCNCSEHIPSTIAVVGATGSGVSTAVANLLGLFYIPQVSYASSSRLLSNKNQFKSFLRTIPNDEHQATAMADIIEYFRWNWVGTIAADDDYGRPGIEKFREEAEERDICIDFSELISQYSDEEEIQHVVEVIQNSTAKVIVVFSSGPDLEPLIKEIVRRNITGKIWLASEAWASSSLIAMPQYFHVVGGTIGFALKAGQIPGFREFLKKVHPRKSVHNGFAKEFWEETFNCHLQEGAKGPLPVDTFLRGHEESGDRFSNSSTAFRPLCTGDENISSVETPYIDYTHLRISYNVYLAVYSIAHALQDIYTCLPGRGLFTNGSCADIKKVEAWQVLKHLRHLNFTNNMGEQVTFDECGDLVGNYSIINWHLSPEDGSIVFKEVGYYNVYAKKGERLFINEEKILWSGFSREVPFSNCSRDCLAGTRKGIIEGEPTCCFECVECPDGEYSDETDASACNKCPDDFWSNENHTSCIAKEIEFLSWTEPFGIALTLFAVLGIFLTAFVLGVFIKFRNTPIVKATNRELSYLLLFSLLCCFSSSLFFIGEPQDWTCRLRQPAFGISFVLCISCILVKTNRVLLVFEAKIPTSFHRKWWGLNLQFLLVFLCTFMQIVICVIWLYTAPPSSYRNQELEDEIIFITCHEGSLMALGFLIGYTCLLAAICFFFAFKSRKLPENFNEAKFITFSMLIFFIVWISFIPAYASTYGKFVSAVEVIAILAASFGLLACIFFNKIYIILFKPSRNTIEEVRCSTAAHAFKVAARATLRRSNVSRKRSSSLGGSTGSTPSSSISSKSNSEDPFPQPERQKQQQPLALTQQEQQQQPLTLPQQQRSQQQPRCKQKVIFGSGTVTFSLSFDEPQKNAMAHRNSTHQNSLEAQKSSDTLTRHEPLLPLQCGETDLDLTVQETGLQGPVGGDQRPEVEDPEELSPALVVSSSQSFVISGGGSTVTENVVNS
# Assay: [Ca2+]i fluorescence assay in HEK 293 4.0-7 cells expressing hPCaR
# Type: cell-based
# Conditions: buffer with 1 mM CaCl2
# Method: The activities of the compounds of the present invention on calcium receptors were measured. In one embodiment, the measurement was performed in accordance with the method described in Example 4 of Nemeth et al., PCT/US95/13704 (International Publication No. WO96/12697) herein incorporated by reference.
# A 4.0-kb NotI-HindIII fragment of the human parathyroid cell Ca^2+ receptor (hPCaR) cDNA was subcloned into the mammalian expression vector pCEP4 (Invitrogen) containing the hygromycin-resistant gene as a selectable marker. This plasmid was transfected into HEK 293 cells by calcium phosphate precipitation. Transfected cells were grown in Dulbecco's modified Eagle's medium containing 10% fetal bovine serum and hygromycin (200 μg/mL). Hygromycin-resistant colonies were subcloned and assayed for hPCaR mRNA by solution hybridization using a ^32P-labeled RNA probe complementary to the (4.0 kb) hPCaR sequence (Garrett, et al., J. Biol. Chem. 270, 12919-12925 (1995)). Clone 7 was used to assess the effects of compounds on [Ca^2+]i. This stably transfected cell line was termed HEK 293 4.0-7. For measurements of [Ca^2+]i, the cells were recovered from tissue culture flasks by brief treatment with Versene (Invitrogen; Containing 0.2 g/L EDTA.4Na in phosphate-buffered saline) and then seeded in collagen coated 384-well plates (BD Biosciences) at 20K cells per well in the growth media (same as above). Cells were grown in 37c TC incubator overnight. Then, the media was discarded and cells were loaded with 1× dye from Ca^2+ Assay Kit I (BD Biosciences) in parathyroid cell buffer (126 mM NaCl, 4 mM KCl, 1 mM MgSO4, 0.7 mM K2HPO4/KH2PO4, 20 mM HEPES.NaOH (pH 7.45)) containing 0.5% BSA and 1 mM CaCl2. Cells were loaded at room temperature for 90 minutes. Each test compound was added to the cells and the fluorescence was recorded by using excitation and emission wavelengths of 485 and 530 nm, respectively.
row,Structure (SMILES),pEC50
1,"O=C(NCCN(CCC(c1ccccc1)c1ccccc1)C(=O)Nc1nc2ccccc2s1)C1CCCNC1 (stereo not shown) [Example 129, 3-(benzo[d]thiazol-2-yl)-1-(3,3-diphenylpropyl)-1-(2-(piperidine-3-carboxamido)ethyl)urea]",> 7.00
2,"CN(CCN(CCC(c1ccccc1)c1ccccc1)C(=O)Nc1nc2ccccc2s1)C1CCCCC1 [Example 163, 3-Benzothiazol-2-yl-1-[2-(cyclohexyl-methyl-amino)-ethyl]-1-(3,3-diphenyl-propyl)-urea]",6.00 to 7.00
3,"CS(=O)(=O)Nc1ccc(-c2nc(NC(=O)N(CCO)CCC(c3ccccc3)c3ccccc3)sc2Cl)cc1 [Example 133, 3-(5-chloro-4-(4-(methylsulfonamido)phenyl)thiazol-2-yl)-1-(3,3-diphenylpropyl)-1-(2-hydroxyethyl)urea]",> 7.00
4,"CN(C)C(=O)CCN(CCC(c1ccccc1)c1ccccc1)C(=O)Nc1nc2ccccc2s1 [Example 107, 3-(benzo[d]thiazol-2-yl)-1-(3-(dimethylamino)-3-oxopropyl)-1-(3,3-diphenylpropyl)urea]",6.00 to 7.00
5,"CS(=O)(=O)NCCN(CCC(c1ccccc1)c1ccccc1)C(=O)Nc1nc2ccccc2s1 [Example 167, N-{2-[3-Benzothiazol-2-yl-1-(3,3-diphenyl-propyl)-ureido]-ethyl}-methanesulfonamide]",6.00 to 7.00
6,"O=C1CC[C@H](NCCN(CCC(c2ccccc2)c2ccccc2)C(=O)Nc2nc(-c3ccccc3)c(Cl)s2)CN1 [Example 142, (S)-3-(5-chloro-4-phenylthiazol-2-yl)-1-(3,3-diphenylpropyl)-1-(2-(6-oxopiperidin-3-ylamino)ethyl)urea]",> 7.00
7,"CC(C)(C)OC(=O)N1CCC(C(=O)NCCN(CCC(c2ccccc2)c2ccccc2)C(=O)Nc2nc3ccccc3s2)CC1 [Example 165, 4-{2-[3-Benzothiazol-2-yl-1-(3,3-diphenyl-propyl)-ureido]-ethylcarbamoyl}-piperidine-1-carboxylic acid tert-butyl ester]",6.00 to 7.00
8,"CS(=O)(=O)Nc1ccc(-c2csc(NC(=O)N(CCC(=O)O)CCC(c3ccccc3)c3ccccc3)n2)cc1 [Example 113, 3-(1-(3,3-diphenylpropyl)-3-(4-(4-(methylsulfonamido)phenyl)thiazol-2-yl)ureido)propanoic acid]",6.00 to 7.00
9,"O=C(Nc1nc2ccccc2s1)N(CCNCC1CCN(C(=O)OCc2ccccc2)CC1)CCC(c1ccccc1)c1ccccc1 [Example 149, 4-({2-[3-Benzothiazol-2-yl-1-(3,3-diphenyl-propyl)-ureido]-ethylamino}-methyl)piperidine-1-carboxylic acid benzyl ester]",6.00 to 7.00
10,"O=C1CC[C@@H](NCCN(CCC(c2ccccc2)c2ccccc2)C(=O)Nc2nc(-c3ccccc3)c(Cl)s2)CN1 [Example 147, (R)-3-(5-chloro-4-phenylthiazol-2-yl)-1-(3,3-diphenylpropyl)-1-(2-(6-oxopiperidin-3-ylamino)ethyl)urea]",> 7.00
11,"CS(=O)(=O)Nc1ccc(-c2nc(NC(=O)N(CCN[C@H]3CCCNC3)CCC(c3ccccc3)c3ccccc3)sc2Cl)cc1 [Example 141, (S)-3-(5-chloro-4-(4-(methylsulfonamido)phenyl)thiazol-2-yl)-1-(3,3-diphenylpropyl)-1-(2-(piperidin-3-ylamino)ethyl)urea]",> 7.00
12,"CS(=O)(=O)Nc1ccc(-c2nc(NC(=O)N(CCCC(=O)O)CCC(c3ccccc3)c3ccccc3)sc2Cl)cc1 [Example 73, 4-(3-(5-chloro-4-(4-(methylsulfonamido)phenyl)thiazol-2-yl)-1-(3,3-diphenylpropyl)ureido)butanoic acid]",> 7.00
13,"O=C(Nc1nc2ccccc2s1)N(CCN[C@@H]1CCCNC1)CCC(c1ccccc1)c1ccccc1 [Example 145, (R)-3-(benzo[d]thiazol-2-yl)-1-(3,3-diphenylpropyl)-1-(2-(piperidin-3-ylamino)ethyl)urea]",> 7.00
14,"O=C(NCCCCN(CCC(c1ccccc1)c1ccccc1)C(=O)Nc1nc2ccccc2s1)C1CCCCN1 (stereo not shown) [Example 128, 3-(benzo[d]thiazol-2-yl)-1-(3,3-diphenylpropyl)-1-(4-(piperidine-2-carboxamido)butyl)urea]",> 7.00

# Now from value to molecule:
row,pEC50,Structure (SMILES)
1,> 7.00,"NC(=O)CCCN(CCC(c1ccccc1)c1ccccc1)C(=O)Nc1nc2ccccc2s1 [Example 80, 1-(4-amino-4-oxobutyl)-3-(benzo[d]thiazol-2-yl)-1-(3,3-diphenylpropyl)urea]"
2,> 7.00,"O=C(CCCN(CCC(c1ccccc1)c1ccccc1)C(=O)Nc1nc(-c2ccccc2)cs1)N[C@@H]1CCCNC1 [Example 76, (R)-1-(3,3-diphenylpropyl)-1-(4-oxo-4-(piperidin-3-ylamino)butyl)-3-(4-phenylthiazol-2-yl)urea]"
3,6.00 to 7.00,"CC(C)N1CCN(C(=O)CCCN(CCC(c2ccccc2)c2ccccc2)C(=O)Nc2nc3ccccc3s2)CC1 [Example 118, 3-(benzo[d]thiazol-2-yl)-1-(3,3-diphenylpropyl)-1-(4-(4-isopropylpiperazin-1-yl)-4-oxobutyl)urea]"
4,5.30 to 6.00,"C[C@H]1CNCCN1C(=O)CCN(CCC(c1ccccc1)c1ccccc1)C(=O)Nc1nc2ccccc2s1 [Example 123, (S)-3-(benzo[d]thiazol-2-yl)-1-(3,3-diphenylpropyl)-1-(3-(2-methylpiperazin-1-yl)-3-oxopropyl)urea]"
5,> 7.00,"O=C(O)CCCN(CCC(c1ccccc1)c1ccccc1)C(=O)Nc1nc(-c2ccccc2)c(Cl)s1 [Example 83, 4-(3-(5-chloro-4-phenylthiazol-2-yl)-1-(3,3-diphenylpropyl)ureido)butanoic acid]"
6,6.00 to 7.00,"O=C(O)CCCN(CCC(c1ccccc1)c1ccccc1)C(=O)Nc1nc(-c2ccccc2)cs1 [Example 111, 4-(1-(3,3-diphenylpropyl)-3-(4-phenylthiazol-2-yl)ureido)butanoic acid]"
7,> 7.00,"CS(=O)(=O)Nc1ccc(-c2csc(NC(=O)N(CCCC(=O)NC3CCNCC3)CCC(c3ccccc3)c3ccccc3)n2)cc1 [Example 70, 1-(3,3-diphenylpropyl)-3-(4-(4-(methylsulfonamido)phenyl)thiazol-2-yl)-1-(4-oxo-4-(piperidin-4-ylamino)butyl)urea]"
8,6.00 to 7.00,"C[C@H]1CN(C(=O)CCN(CCC(c2ccccc2)c2ccccc2)C(=O)Nc2nc3ccccc3s2)CCN1 [Example 115, (S)-3-(benzo[d]thiazol-2-yl)-1-(3,3-diphenylpropyl)-1-(3-(3-methylpiperazin-1-yl)-3-oxopropyl)urea]"
9,5.30 to 6.00,"O=C(O)CCN(CCC(c1ccccc1)c1ccccc1)C(=O)Nc1nc(-c2ccccc2)cs1 [Example 126, 3-(1-(3,3-diphenylpropyl)-3-(4-phenylthiazol-2-yl)ureido)propanoic acid]"
10,6.00 to 7.00,"C[C@H]1CN(C(=O)CCCN(CCC(c2ccccc2)c2ccccc2)C(=O)Nc2nc(-c3ccccc3)cs2)CCN1 [Example 90, (S)-1-(3,3-diphenylpropyl)-1-(4-(3-methylpiperazin-1-yl)-4-oxobutyl)-3-(4-phenylthiazol-2-yl)urea]"
11,5.30 to 6.00,"C[C@@H]1CNCCN1C(=O)CCN(CCC(c1ccccc1)c1ccccc1)C(=O)Nc1nc2ccccc2s1 [Example 120, (R)-3-(benzo[d]thiazol-2-yl)-1-(3,3-diphenylpropyl)-1-(3-(2-methylpiperazin-1-yl)-3-oxopropyl)urea]"
